The text below walks through data of PubChem BioAssay AID179 (DTP/NCI, 2004).

Several values for one entry are separate records, joined by “and”; a condition that tells them apart may be missing. Identical values can stand only once. Activity calls are given as the source filed them.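 The calls were made as follows: active = compounds giving half or more protection of infected cells from virus-caused growth loss, again on retest; inactive = the rest.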 Some results are limits rather than exact numbers.

A word on the EC50: it is the midpoint of the concentration-response curve. Usually IC50 stands for the concentration needed to halve the response being measured. Lower therefore signals greater potency in that assay.

The test system of the test is CEM cells HIV-1 protection, formazan growth assay. Description: NCI AIDS Antiviral Assay. As to conditions: for IC50: measured here: growth of uninfected CEM cells. The procedure, abridged:
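Category rules: moderately active means at least 50% protection on retest, and confirmed active means 100% protection reproducibly. The underlying data came from a formazan growth assay in HIV-1-infected CEM cells.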

As for `Nc1nc(N)c2c(n1)C(=O)N(Cc1ccccc1)C2`, the result was inactive.

Regarding `N#C/C(C(=O)NCc1ccccc1)=C(/N)N1CCCC1`, the EC50 was > 200 µM and the IC50 was > 200 µM. Regarding `O=C1CS(=O)(=O)C(c2ccccc2Cl)N1N1C(=O)CS(=O)(=O)C1c1ccccc1Cl` (stereo not given), the EC50 is > 200 µM and the IC50 worked out at 46.8 µM. For the compound `O=C(O)c1[nH]c(=O)[nH]c(=O)c1C(=O)O`, the EC50 is > 200 µM and the IC50 is > 200 µM. As for `CC/C(Cl)=N\OC(=O)Nc1ccc(C#N)cc1`, the EC50 is > 200 µM and the IC50 was found to be 18.2 µM. For the compound `CN(C(=O)c1ccc(Cl)cc1)C(=S)N1CCN(c2ccccc2)CC1`, the EC50 was > 19.5 µM and the IC50 is > 19.5 µM.

In the case of `O=C(Cc1csc(N=Nc2c(O)[nH]c3ccccc23)n1)Nc1ccccc1`, the EC50 was > 200 µM and the IC50 stood at 112 µM. In the same order, the values of `O=C(O)C12CC=CCC1(C(=O)O)CC=CC2` (stereo not given) are > 200 µM and > 200 µM. In the same order, the values of `O=C(/C=C/c1ccc(O)c(O)c1)NC(CO)C(=O)O` (stereo not given) are > 200 µM and 28.8 µM. For the compound `O=[N+]([O-])c1ccc2c(c1)C1=C(CO2)Cc2ccccc2O1`, the outcome was inactive. For the compound `CCOC(=O)C(c1ccsc1)P(=O)(OCC)OCC` (stereo not given), the EC50 is > 813 µM and the IC50 was found to be 28.2 µM. Consider `CCOC(=O)/C=C(/OCC)[C@@H]1C(C(=O)c2ccc(Cl)cc2)[C@@H]1/C(=C\C(=O)OCC)OCC` (stereo not given in full), for which the EC50 is > 200 µM and the IC50 turned out to be 5.89 µM. For the compound `CO[C@@H]1C2C3c4ccccc4C(c4ccccc43)C2[C@H](OC)[C@H]2OC(c3ccccc3)O[C@H]21` (stereo not given in full), the EC50 was > 67.6 µM and the IC50 is > 67.6 µM.

As for `C=CC(C)(C)C1Oc2cc(O)ccc2C(=O)C1c1ccc(OC)c(OC)c1O` (stereo not given), the EC50 is > 200 µM and the IC50 worked out at 3.09 µM. `O=C1c2ccccc2C(=O)c2sc(Nc3ccccc3C(F)(F)F)nc21`: the EC50 is > 200 µM and the IC50 worked out at 11 µM. Consider `Cc1coc2c1[C@@H](O)[C@@]1(C)[C@H](CCC[C@@H]1C)C2`, for which the EC50 was > 200 µM and the IC50 was 35.5 µM. Turning to `O=C1NC(=O)C(CCCCO)N1` (stereo not given), the result was inactive. `CCOP(=O)(Nc1ccc(-c2ccccc2)cc1)OCC`: the EC50 is > 200 µM and the IC50 was determined as 52.5 µM. As for `Cc1cn(C2CC(N(C)O)C(CO)O2)c(=O)[nH]c1=O` (stereo not given), the EC50 was 31.6 µM and > 200 µM; the IC50 is > 200 µM and 33.1 µM. For the compound `CCOC(=O)CC1c2ccc(O)cc2OC(=O)C1c1ccc([N+](=O)[O-])cc1` (stereo not given), the EC50 was > 200 µM and the IC50 was 31.6 µM. On the same counts, the results for `O=C(O)CN1CCSc2ccccc2CN(CC(=O)O)CCSc2ccccc2C1` are > 562 µM and > 562 µM. For the compound `Cc1csc(N2C(=O)c3cccc4cccc(c34)C2=O)n1`, the EC50 was > 200 µM and the IC50 came to 64.6 µM. With `COC(=O)c1ccc(SSc2ccc(C(=O)OC)cc2[N+](=O)[O-])c([N+](=O)[O-])c1`, the outcome was inactive. Take `CCNc1cc2oc(=O)cc(C)c2cc1C`: the EC50 is > 33.1 µM and the half-maximal inhibitory concentration (IC50) is > 33.1 µM. Take `COc1nc2c(nnn2C2OCC(O)C(O)C2O)c(=O)n1C` (stereo not given): the outcome was inactive.

With `Oc1ccc(S)cc1CNc1ccccc1`, the EC50 is > 200 µM and the IC50 was found to be 22.4 µM. In the same order, the values of `O=C(CNC(=O)OCc1ccccc1)NCCCCC(NC(=O)OCc1ccccc1)C(=O)O` (stereo not given) are > 200 µM and > 200 µM. As to `N#CC12CC3=C(N=C1NC1=C(CCc4ccccc41)C2)c1ccccc1CC3` (stereo not given), the EC50 was > 200 µM and the IC50 is 3.02 µM.

As for `N#C/C(=C\n1ccc(=O)[nH]c1=S)C(N)=O`, the EC50 was > 200 µM and the IC50 is > 200 µM. Consider `CNc1ncc2nc(C)c(=O)n(C)c2n1`, for which the EC50 was > 200 µM and the IC50 is > 200 µM.
